The values below come from patent US10730864B2, “RAD51 inhibitors and uses thereof” (THE REGENTS OF THE UNIVERSITY OF CALIFORNIA, priority 2015, dated 2020).

Assay [1] deals with human breast cancer cell line T47D. Put plainly: XTT growth inhibition assay, T47D. In kind it is cell-based. The settings on record: Mammary Gland Ductal Carcinoma. The method, then:
(§1) Standard XTT assays with a four-day drug treatment procedure were performed to measure the dose dependent cytotoxicity of IBR analogs in cultured cells. In brief, cells were plated on 96-well dishes one day before the drug treatment, followed by drug treatment on day 2 and XTT assay on day 6 after drug addition by using a commercial cell proliferation kit (Roche Scientific) following the instructions.
(§2) Triplicate sets were measured and compiled for final data presentation.
(§3) The growth inhibition of a panel of cancer cell lines was tested against IBR120 using an XTT assay. These cell lines included human Chronic Myelogenous Leukemia cell line K562, human breast cancer cell lines MCF7, MDA-MB-231, MDA-MB-361, MDA-MB-435, MDA-MB-468, Hs578-T, and T47D, human Osteosarcoma cell line U2OS, human Glioblastoma cell line T98G, human Cervical Cancer cell line HeLa, as well as human mammary gland normal epithelial cell line MCF10A as normal control.
A general note: Tetrazolium assays rely on reduction of a dye to a coloured formazan, in cell work by metabolically active cells.

The test system of assay [2] is human Chronic Myelogenous Leukemia cell line K562. Nature of the assay: XTT growth inhibition assay, K562. In kind it is cell-based. The method, then:
as §1, §2, §3

For assay [3], the system named is human breast cancer cell line MDA-MB-231. Nature of the assay: XTT growth inhibition assay, MDA-MB-231. In kind it is cell-based. The settings on record: MDA-MB-231, Mammary Gland Adenocarcinoma. The method, then: as §1, §2, §3
The subject of assay [4] is human Glioblastoma cell line T98G. Put plainly: XTT growth inhibition assay, T98G. The settings on record: Glioblastoma Multiforme. In kind it is cell-based. The method, then: as §1, §2, §3
Assay [5] relates to human breast cancer cell line MDA-MB-361. Put plainly: XTT growth inhibition assay, MDA-MB-361. In kind it is cell-based. The settings on record: MDA-MB-361, Mammary Gland Adenocarcinoma. The method, then: as §1, §2, §3
Assay [6] concerns human Cervical Cancer cell line HeLa. Nature of the assay: XTT growth inhibition assay, HeLa. The settings on record: Cervix Adenocarcinoma. In kind it is cell-based. The method, then:
as §1, §2, §3

The subject of assay [7] is HR repair in HeLa-DR-GFP cells. Nature of the assay: HR assay (I-SceI inducible gene conversion, DR-GFP). In kind it is cell-based, human. The settings on record: 10 or 20 μM, 24 hours, GFP positive cells by flow cytometry. The method, then: HR frequency was measured by two-colour fluorescence flow cytometric analysis using HeLa-DR-GFP cells. Fifty thousand events were analyzed for each experiment. Cells were treated with DMSO (mock), 10 or 20 μM of IBR2 or IBR120 as indicated for 24 hours after transient transfection with I-SceI expression vector pCABSce for 24 hours. HR frequencies were indicated by GFP positive cell percentages. […] DMSO. […] DMSO. […] DMSO. […] DMSO. […] GFP positive cell percentages by indicated treatments obtained from three independent experiments are summarized as means±SD.
Using previously described methods (Zhu et al., 2013, EMBO Mol. Med. 5:1-13; Pierce et al., 1999, Genes Dev. 13:2633-2638), HeLa cells stably expressing DR-GFP were transfected with the I-Sce expression vector pCBASce and treated with compounds or DMSO. Cells were then trypsinized and subjected to flow cytometry.
Inhibition of RAD51 function will lead to failure in HR repair. […] Upon I-SceI expression by transient transfection for 24 hours to induce DSBs, cells were treated with DMSO, 10 or 20 μM of IBR120 or IBR2 for another 24 hours and the GFP positive population resulting from successful recombination was measured by flow cytometry.

For assay [8], the system named is human breast cancer cell line MCF7. Put plainly: XTT growth inhibition assay, MCF7. In kind it is cell-based. The settings on record: MCF7, Mammary Gland Adenocarcinoma. The method, then:
as §1, §2, §3

The test system of assay [9] is human breast cancer cell line Hs578-T. Nature of the assay: XTT growth inhibition assay, Hs578-T. The settings on record: Hs-578T, Mammary Gland Carcinoma. In kind it is cell-based. The method, then:
as §1, §2, §3

Assay [10] relates to human mammary gland normal epithelial cell line MCF10A. Put plainly: XTT growth inhibition assay, MCF10A normal control. In kind it is cell-based. The settings on record: MCF-10A. The method, then:
as §1, §2, §3

Assay [11] deals with human Osteosarcoma cell line U2OS. Nature of the assay: XTT growth inhibition assay, U2OS. In kind it is cell-based. The method, then: as §1, §2, §3
Assay [12] concerns panel of cancer cell lines. Nature of the assay: XTT growth inhibition assay, panel of cancer cell lines (summary). In kind it is cell-based, human. The method, then: as §1, §2, §3
Assay [13] has as its target T1, RAD51 (Homo sapiens, UniProt Q06609).
T1 sequence (Q06609 1-339): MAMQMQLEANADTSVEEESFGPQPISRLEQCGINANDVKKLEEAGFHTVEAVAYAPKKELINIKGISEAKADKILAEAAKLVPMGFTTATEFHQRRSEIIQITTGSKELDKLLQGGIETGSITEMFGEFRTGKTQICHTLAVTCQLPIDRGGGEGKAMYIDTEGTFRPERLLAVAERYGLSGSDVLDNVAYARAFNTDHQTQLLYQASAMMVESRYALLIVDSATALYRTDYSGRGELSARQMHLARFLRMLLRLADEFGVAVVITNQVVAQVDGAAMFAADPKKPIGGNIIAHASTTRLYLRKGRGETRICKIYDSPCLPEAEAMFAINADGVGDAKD
Nature of the assay: Multimer formation assay (gel filtration). The settings on record: RAD51:IBR120 1:10 molar ratio, gel filtration profile. In kind it is biochemical. The method, then:
A mixture of RAD51 (3.2 μg) and IBR120 (1:10 molar ratio) was incubated for 15 min at 37° C., supplemented with buffer (50 mM triethanolamine-HCl [pH7.5], 0.5 mM Mg(OAc)2, 1 mM DTT, 2 mM ATP and 100 μg/ml BSA, total volume 20 μl) and incubated for 15 min. The mixture was loaded onto a 2.4 ml Superdex 200 PC 3.2/30 column (Pharmacia) equilibrated with the same buffer as previously described (Zhu et al., 2013, EMBO Mol. Med. 5:1-13; Pierce et al., 1999, Genes Dev. 13:2633-2638). Fractions (50 μl) were collected and 0.5 μl of each fraction was blotted onto PVDF membrane. RAD51 was detected using anti-RAD51 antibody (mAb 14B4, GeneTex)
On the RAD51 core domain, a hydrophobic pocket formed between β-strand B3 and α-helix A4 of RAD51 is critical for RAD51 multimerization (Pellegrini et al., 2002, Nature 420:287-293). It was hypothesized that IBR compounds should be able to inhibit RAD51 multimerization. In order to test this hypothesis, the gel filtration profile of RAD51 multimerization in the presence of IBR120 or vehicle (DMSO) alone were compared.
On the technique in general: In gel filtration, larger molecules generally elute earlier.

The test system of assay [14] is human breast cancer cell line MDA-MB-435. Put plainly: XTT growth inhibition assay, MDA-MB-435. The settings on record: MDA-MB-435, Melanoma/Mammary Gland Ductal Carcinoma. In kind it is cell-based. The method, then: as §1, §2, §3
Assay [15] relates to triple-negative human breast cancer cell line MDA-MB-468. Nature of the assay: XTT cell killing / growth inhibition assay, MDA-MB-468. In kind it is cell-based. The settings on record: for IC50: Homo sapiens. The method, then: as §1, §2
To test the possibility of inhibiting triple-negative breast cancer, the newly synthesized IBR2 analogues IBR101-124 were screened of their growth inhibition abilities using an XTT assay.

“Also recorded” adds a separate entry of the source. Where two headings read alike, the source gives them in different places.

In the case of `O=S(=O)(Cc1ccccc1)N1Cc2ccccc2[C@@H]1c1c[nH]c2ccccc12` [IBR120, (R)-3-(2-(benzylsulfonyl)isoindolin-1-yl)-1H-indole], the IC50 in [1] worked out at 6.3 ± 1.5 µM; in [2], 3.6 ± 0.7 µM; in assay [3], 3.5 ± 0.4 µM; in [4] it was 9.5 ± 0.9 µM; in [5] it was 4.5 ± 0.7 µM; in [6], 3.6 ± 0.6 µM. The IC50 is 3.1 ± 0.2 µM in [8]; 4.9 ± 1 µM in assay [9]; greater than 30 µM in [10]; 4.7 ± 0.5 µM in assay [11]; 3 to 5 µM in [12] (Homo sapiens, XTT assay, read-out: IC50 values in most tested cancer cell lines); 4 ± 0.7 µM in [14]. The IC50 in assay [15] (96 h, MDA-MB-468, XTT assay, four-day drug treatment, read-out: IC50) was 3.1 µM; in [15] (MDA-MB-468, growth inhibition, raw dataset for SAR analysis, read-out: pIC50 (converted)), 3.24 µM; in assay [15] (MDA-MB-468, Mammary Gland Adenocarcinoma (Table 3, with spread), read-out: IC50), 3.1 ± 0.4 µM. The “HR frequency / HR repair (in words)” value in assay [7] was “impairing homologous recombination repair; also recorded: significantly reduced; also recorded: greater depression of HR repair activity; also recorded: inhibit HR repair in cells; also recorded: dose dependently inhibits HR repair”. Moreover, the “difference between the IC50 values in normal and cancer cells” value in assay [12] (MCF10A versus cancer cell lines) was “approximately 10 fold”. The “RAD51 multimerization (in words)” value in [13] is given as “capable of disrupting RAD51 multimerization; also recorded: can inhibit RAD51 multimerization; also recorded: can disrupt RAD51 multimer formation in vitro; also recorded: inhibits RAD51 multimerization”. The “IC50 compared with that of the parental compound IBR2 (in words)” value in assay [15] (MDA-MB-468) is given as “significantly lower”.
